According to patent US11339419B2, “Scavenger protein(s) for improved preservation of analyte detection sensor(s) and method(s) of use thereof” (Siemens Healthcare Diagnostics Inc., priority 2017, dated 2022):
Values joined by “and” are separate entries in the source; they are usually repeats but may differ in a detail not shown here. Equal entries are not always repeated.

Test system: creatininase (Toyobo)
Experiment: Toyobo Creatininase Enzyme Absorbance with BSA and MIT
Assay type: biochemical
[1] = Day 0, 50 mg/mL BSA, no MIT (row of 100 ppm MIT)
[2] = Day 0, 50 ppm MIT, 25 mg/mL BSA
[3] = Day 0, 50 ppm MIT, 50 mg/mL BSA
[4] = Day 0, 100 ppm MIT, 5 mg/mL BSA
[5] = Day 0, 100 ppm MIT, 25 mg/mL BSA
[6] = Day 0, 100 ppm MIT, 50 mg/mL BSA
[7] = Day 4, 50 ppm MIT, 25 mg/mL BSA
[8] = Day 4, 50 ppm MIT, 50 mg/mL BSA
[9] = Day 4, 100 ppm MIT, 5 mg/mL BSA
[10] = Day 4, 100 ppm MIT, 25 mg/mL BSA
[11] = Day 4, 100 ppm MIT, 50 mg/mL BSA
[12] = Day 14, 50 ppm MIT, 5 mg/mL BSA
[13] = Day 14, 50 ppm MIT, 25 mg/mL BSA
[14] = Day 14, 50 ppm MIT, 50 mg/mL BSA
[15] = Day 14, 100 ppm MIT, 5 mg/mL BSA
[16] = Day 14, 100 ppm MIT, 25 mg/mL BSA
[17] = Day 14, 100 ppm MIT, 50 mg/mL BSA

MEAN (columns 7-11) (Day 0, 50 mg/mL BSA, no MIT (row of 50 ppm MIT)): 0.64 | Creatininase Enzyme Absorbance, columns 7-11 [1]: 0.735 and 0.782 and 0.778 | MEAN (columns 7-11) [1]: 0.55 | % Bias (Day 0, 50 ppm MIT vs no MIT, 5 mg/mL BSA): 6.6% | % Bias (Day 0, 50 ppm MIT vs no MIT, 25 mg/mL BSA): 8.6% | % Bias (Day 0, 50 ppm MIT vs no MIT, 50 mg/mL BSA): 4.9% | MEAN (Day 0, 50 ppm MIT, 5 mg/mL BSA): 0.63 | MEAN [2]: 0.63 | MEAN [3]: 0.67 | % Bias (Day 0, 100 ppm MIT vs no MIT, 5 mg/mL BSA): 7.6% | % Bias (Day 0, 100 ppm MIT vs no MIT, 25 mg/mL BSA): 10.4% | % Bias (Day 0, 100 ppm MIT vs no MIT, 50 mg/mL BSA): 10.1% | MEAN [4]: 0.66 | MEAN [5]: 0.63 | MEAN [6]: 0.60 | MEAN (columns 7-11) (Day 4, 5 mg/mL BSA, no MIT (row of 50 ppm MIT)): 0.81 | MEAN (columns 7-11) (Day 4, 5 mg/mL BSA, no MIT (row of 100 ppm MIT)): 0.77 | MEAN (columns 7-11) (Day 4, 25 mg/mL BSA, no MIT (row of 50 ppm MIT)): 0.64 | MEAN (columns 7-11) (Day 4, 25 mg/mL BSA, no MIT (row of 100 ppm MIT)): 0.62 | MEAN (columns 7-11) (Day 4, 50 mg/mL BSA, no MIT (row of 50 ppm MIT)): 0.52 | MEAN (columns 7-11) (Day 4, 50 mg/mL BSA, no MIT (row of 100 ppm MIT)): 0.51 | % Bias (Day 4, 50 ppm MIT vs no MIT, 5 mg/mL BSA): −0.2% | % Bias (Day 4, 50 ppm MIT vs no MIT, 25 mg/mL BSA): 1.5% | % Bias (Day 4, 50 ppm MIT vs no MIT, 50 mg/mL BSA): 1.9% | MEAN (Day 4, 50 ppm MIT, 5 mg/mL BSA): 0.81 | MEAN [7]: 0.65 | MEAN [8]: 0.53 | % Bias (Day 4, 100 ppm MIT vs no MIT, 5 mg/mL BSA): 2.2% | % Bias (Day 4, 100 ppm MIT vs no MIT, 25 mg/mL BSA): 5.6% | % Bias (Day 4, 100 ppm MIT vs no MIT, 50 mg/mL BSA): 7.0% | MEAN [9]: 0.79 | MEAN [10]: 0.65 | MEAN [11]: 0.54 | MEAN (columns 7-11) (Day 14, 5 mg/mL BSA, no MIT (row of 50 ppm MIT)): 0.90 | MEAN (columns 7-11) (Day 14, 5 mg/mL BSA, no MIT (row of 100 ppm MIT)): 0.87 | MEAN (columns 7-11) (Day 14, 25 mg/mL BSA, no MIT (row of 50 ppm MIT)): 0.70 | MEAN (columns 7-11) (Day 14, 25 mg/mL BSA, no MIT (row of 100 ppm MIT)): 0.72 | MEAN (columns 7-11) (Day 14, 50 mg/mL BSA, no MIT (row of 50 ppm MIT)): 0.55 | MEAN (columns 7-11) (Day 14, 50 mg/mL BSA, no MIT (row of 100 ppm MIT)): 0.56 | % Bias (Day 14, 50 ppm MIT vs no MIT, 5 mg/mL BSA): −1.7% | % Bias (Day 14, 50 ppm MIT vs no MIT, 25 mg/mL BSA): 10.4% | % Bias (Day 14, 50 ppm MIT vs no MIT, 50 mg/mL BSA): 3.9% | MEAN [12]: 0.88 | MEAN [13]: 0.77 | MEAN [14]: 0.57 | % Bias (Day 14, 100 ppm MIT vs no MIT, 5 mg/mL BSA): 4.1% | % Bias (Day 14, 100 ppm MIT vs no MIT, 25 mg/mL BSA): 3.3% | % Bias (Day 14, 100 ppm MIT vs no MIT, 50 mg/mL BSA): 6.0% | MEAN [15]: 0.91 | MEAN [16]: 0.75 | MEAN [17]: 0.60 | absorbance of the creatininase enzyme compared to samples containing 0 mg/mL of BSA (days 4 and 14, 5, 25 and 50 mg/mL BSA, with MIT): increased absorbance | creatininase absorbance, solutions 7-11 (days 4 and 14, only BSA, no MIT): increased (or at least maintained) | BSA concentration at which the creatininase absorbance measurement is highest (days 4 and 14, with MIT): 5 mg/mL
Substance: bovine serum albumin [BSA]
Creatininase Enzyme Absorbance (Day 0, 50 ppm MIT, 5 mg/mL BSA): 0.893 and 0.808 and 0.806 and 0.812 and 0.843 | Creatininase Enzyme Absorbance [2]: 0.895 and 0.829 and 0.788 and 0.82 and 0.831 | Creatininase Enzyme Absorbance [3]: 0.905 and 0.862 and 0.847 and 0.863 and 0.895 | Creatininase Enzyme Absorbance [4]: 0.922 and 0.849 and 0.843 and 0.844 and 0.859 | Creatininase Enzyme Absorbance [5]: 0.905 and 0.838 and 0.807 and 0.795 and 0.811 | Creatininase Enzyme Absorbance [6]: 0.867 and 0.794 and 0.799 and 0.792 and 0.771 | Creatininase Enzyme Absorbance (Day 4, 50 ppm MIT, 5 mg/mL BSA): 1.031 and 0.998 and 1.012 and 1.044 and 1.01 | Creatininase Enzyme Absorbance [7]: 0.867 and 0.847 and 0.853 and 0.878 and 0.873 | Creatininase Enzyme Absorbance [8]: 0.737 and 0.728 and 0.749 and 0.75 and 0.765 | Creatininase Enzyme Absorbance [9]: 0.998 and 0.974 and 1.006 and 1.008 and 1.031 | Creatininase Enzyme Absorbance [10]: 0.871 and 0.863 and 0.869 and 0.86 and 0.866 | Creatininase Enzyme Absorbance [11]: 0.773 and 0.775 and 0.754 and 0.734 and 0.742 | Creatininase Enzyme Absorbance [12]: 1.13 and 1.104 and 1.098 and 1.12 and 1.117 | Creatininase Enzyme Absorbance [13]: 1.021 and 0.986 and 0.982 and 1.025 and 0.996 | Creatininase Enzyme Absorbance [14]: 0.814 and 0.793 and 0.789 and 0.796 and 0.804 | Creatininase Enzyme Absorbance [15]: 1.155 and 1.123 and 1.105 and 1.133 and 1.156 | Creatininase Enzyme Absorbance [16]: 0.997 and 0.966 and 0.95 and 0.992 and 0.976 | Creatininase Enzyme Absorbance [17]: 0.854 and 0.822 and 0.792 and 0.828 and 0.832
